Data reported in US11447475B2, “Isoxazole N-linked carbamoyl cyclohexyl acids as LPA antagonists” (BRISTOL-MYERS SQUIBB COMPANY, priority 2017, dated 2022).
Read-outs that look alike come from different tables or passages of the source.

What was measured:
nerve-injured mice = conditions: pretreatment; cited from earlier work
human LPA1 = molecular target: T1, human LPA1 (Homo sapiens, UniProt Q92633); experiment: LPA1 functional antagonist assay (calcium flux); assay type: cell-based; conditions: read-out: hLPA1 IC50
T1 construct: expressed in transfected cells; host or cells: Chinese hamster ovary (CHO) cells
Protocol: The effectiveness of compounds of the present invention as LPA1 inhibitors can be determined in an LPA1 functional antagonist assay as follows:
Chinese hamster ovary cells overexpressing human LPA1 were plated overnight (15,000 cells/well) in poly-D-lysine coated 384-well microplates (Greiner bio-one, Cat #781946) in DMEM/F12 medium (Gibco, Cat #11039). Following overnight culture, cells were loaded with calcium indicator dye (AAT Bioquest Inc, Cat #34601) for 30 minutes at 37° C. The cells were then equilibrated to room temperature for 30 minutes before the assay. Test compounds solubilized in DMSO were transferred to 384 well non-binding surface plates (Corning, Cat #3575) using the Labcyte Echo acoustic dispense and diluted with assay buffer [1×HBSS with calcium/magnesium (Gibco Cat #14025-092), 20 mM HEPES (Gibco Cat #15630-080) and 0.1% fatty acid free BSA (Sigma Cat #A9205)] to a final concentration of 0.5% DMSO. Diluted compounds were added to the cells by FDSS6000 (Hamamatsu) at final concentrations ranging from 0.08 nM to 5 μM. and were then incubated for 20 min at room temperature at which time LPA (Avanti Polar Lipids Cat #857130C) was added at final concentrations of 10 nM to stimulate the cells. […] IC50 values were determined by fitting data to a 4-parameter logistic equation (GraphPad Prism, San Diego Calif.).

IPF patients = conditions: 26-week clinical trial in IPF patients; cited from earlier work
[1] = tested on: pancreatic cancer cell lines; conditions: in response to LPA and peritoneal fluid (ascites) from pancreatic cancer patients; cited from earlier work
[2] = tested on: highly peritoneal metastatic pancreatic cancer cell line; conditions: LPA-induced and ascites-induced; cited from earlier work
[3] = tested on: mouse epithelial renal cell line, MCT; conditions: LPA treatment of MCT cells, co-treatment with antagonist; cited from earlier work
UUO mice = UUO mice treated with the antagonist, compared with LPA1 (−/−) mice; cited from earlier work
[4] = tested on: human foetal lung fibroblasts; conditions: induced by BAL obtained from IPF patients; cited from earlier work
[5] = CHO cells overexpressing human LPA1, inhibition of calcium flux induced by 10 nM LPA

T1 sequence (Q92633 whole entry): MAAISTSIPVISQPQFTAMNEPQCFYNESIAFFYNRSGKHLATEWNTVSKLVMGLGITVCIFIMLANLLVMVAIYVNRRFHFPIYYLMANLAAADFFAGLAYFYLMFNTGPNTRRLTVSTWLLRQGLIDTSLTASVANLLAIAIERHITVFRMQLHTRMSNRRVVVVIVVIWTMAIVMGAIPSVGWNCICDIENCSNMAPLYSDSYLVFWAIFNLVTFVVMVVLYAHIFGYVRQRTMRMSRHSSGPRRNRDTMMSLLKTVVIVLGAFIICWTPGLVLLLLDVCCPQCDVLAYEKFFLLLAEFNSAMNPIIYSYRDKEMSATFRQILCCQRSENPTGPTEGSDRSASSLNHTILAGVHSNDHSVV

C[C@@H](N)[C@H]1CC[C@H](C(=O)Nc2ccncc2)CC1 [Example Y-27632]
allodynia and hyperalgesia (nerve-injured mice): completely abolished

Cc1noc(-c2ccc(O[C@@H]3CCC[C@@H](C(=O)O)C3)cc2)c1CNC(=O)OCCC(C)C (racemic) [Example 24]
IC50 (human LPA1): 63 nM

Cc1noc(-c2ccc(O[C@H]3CCC[C@H](C(=O)O)C3)cn2)c1CNC(=O)OCc1cccc(F)c1 [Example 3]
IC50 (human LPA1; [5]): 5 nM

Cc1noc(-c2ccc(-c3ccc(C4(C(=O)O)CC4)cc3)cc2)c1NC(=O)O[C@H](C)c1ccccc1 [BMS-986020]
rate of FVC (forced vital capacity) decline (IPF patients): significantly reduce

Cc1noc(-c2ccc(O[C@H]3CCC[C@H](C(=O)O)C3)cn2)c1CNS(=O)(=O)CCc1ccccc1 [Example 53, (1S,3S)-3-((6-(3-methyl-4-(((2-phenylethyl)sulfonamido)methyl)isoxazol-5-yl) Pyridin-3-yl)oxy)cyclohexane-1-carboxylic Acid]
IC50 (human LPA1; [5]): 4 nM

CCCCCCOC(=O)NCc1c(C)noc1-c1ccc(O[C@H]2CCC[C@H](C(=O)O)C2)c(C)n1 [Example 44]
IC50 (human LPA1): 6 nM

Cc1noc(-c2ccc(O[C@H]3CCC[C@H](C(=O)O)C3)cn2)c1CNC(=O)OCc1cc(F)cc(F)c1 [Example 37, (1S,3S)-3-((6-(4-(((((3,5-difluorobenzyl)oxy)carbonyl)amino)methyl)-3-methylisoxazol-5-yl)pyridin-3-yl)oxy)cyclohexane-1-carboxylic Acid]
IC50 (human LPA1; [5]): 27 nM

Cc1noc(-c2ccc(O[C@H]3CCC[C@H](C(=O)O)C3)cn2)c1CNC(=O)OCC1CC(C)(C)C1 [Example 8]
IC50 (human LPA1): 5.5 nM

CCCCOC(=O)NCc1c(C)noc1-c1ccc(O[C@H]2CCC[C@H](C(=O)O)C2)cn1 [Example 65]
IC50 (human LPA1): 14 nM

Cc1noc(-c2ccc(O[C@H]3CCCC(C(=O)O)C3)cc2)c1CNC(=O)OCC1CC1C (mixture of isomers) [Example 14]
IC50 (human LPA1): 97 nM

Cc1noc(-c2ccc(CSCCC(=O)O)cc2)c1NC(=O)OC(C)c1ccccc1Cl (stereo not shown) [Ki16425]
in vitro migration [1]: effectively blocked | invasion activity [2]: blocked | induction of CTGF expression [3]: almost completely suppressed | development of renal fibrosis (UUO mice): closely resembled the profile of LPA1 (−/−) mice | chemotaxis of human foetal lung fibroblasts [4]: blocked

Cc1noc(-c2ccc(O[C@@H]3CCC[C@@H](C(=O)O)C3)cc2)c1CNC(=O)OCc1ccc(F)cc1 [Example 18]
IC50 (human LPA1): 159 nM
